Reference: PubChem BioAssay AID493145 (Sanford-Burnham Center for Chemical Genomics, 2011)
Where “and” joins values, the source holds several entries; their conditions need not be identical. Equal entries are not always repeated. Calls of active or inactive are those of the source. The rule behind the calls is not given here.

What follows are compounds tested against Intestinal-type alkaline phosphatase (Homo sapiens) (UniProt P09923) (assay: activation of human intestinal phosphatase enzyme – biochemical, human enzyme for mouse series, mouse IAP activator project, SAR follow-up (AID 493145)). Conditions: purified human intestinal alkaline phosphatase, enzymatic activity.
Intestinal-type alkaline phosphatase (Homo sapiens), sequence (P09923 whole entry, looked up): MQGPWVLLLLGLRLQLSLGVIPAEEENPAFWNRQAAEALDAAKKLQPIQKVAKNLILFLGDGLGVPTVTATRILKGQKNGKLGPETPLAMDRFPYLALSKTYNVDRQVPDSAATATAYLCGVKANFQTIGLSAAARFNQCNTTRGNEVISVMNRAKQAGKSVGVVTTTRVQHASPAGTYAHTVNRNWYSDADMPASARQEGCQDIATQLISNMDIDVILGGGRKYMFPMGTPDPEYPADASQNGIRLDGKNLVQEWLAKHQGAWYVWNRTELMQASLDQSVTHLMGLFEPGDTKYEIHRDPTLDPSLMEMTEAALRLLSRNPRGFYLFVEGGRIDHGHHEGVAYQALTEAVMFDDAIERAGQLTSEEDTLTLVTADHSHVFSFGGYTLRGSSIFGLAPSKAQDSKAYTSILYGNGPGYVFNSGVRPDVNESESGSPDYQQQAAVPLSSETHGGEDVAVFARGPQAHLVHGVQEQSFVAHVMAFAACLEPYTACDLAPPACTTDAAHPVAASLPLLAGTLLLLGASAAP
With `COc1ccc(N2CCN(C(=O)CN3C(=O)/C(=C\c4ccco4)SC3=S)CC2)cc1` the EC50 was > 100 µM (inactive). In the case of `CC(C)C(C(=O)NC1CCS(=O)(=O)C1)N1C(=O)/C(=C\c2ccco2)SC1=S` (configuration not stated), the EC50 is reported as > 100 µM (inactive). `Cc1ccc(C)c(NC(=O)CCNS(=O)(=O)c2ccc3[nH]c(=O)oc3c2)c1` was tested, and the EC50 was > 100 µM (inactive). `COc1cc(Cl)c(C)cc1NC(=O)CSc1sc2c(O)cc(=O)[nH]c2c1C#N` was tested, and the EC50 was > 100 µM (inactive). An EC50 of 24 µM was found for `COc1cc(C(=O)NNC(=O)c2n[nH]c3ccccc23)cc(OC)c1OC` in this work. An EC50 of 45.1 µM was found for `S=C(NCCC(c1ccccc1)c1ccccc1)Nc1ccc(Cl)cc1Cl` in this work. An EC50 of 42.6 µM was found for `O=C1/C(=C/c2ccco2)SC(=S)N1C1CCS(=O)(=O)C1` (configuration not stated) in this work. In the case of `COc1ccc(NC(=O)C(CC(C)C)NS(=O)(=O)c2ccc3[nH]c(=O)oc3c2)cc1` (configuration not stated), the EC50 is reported as > 100 µM (inactive). For `COC(=O)c1ccc(C)c(NC(=O)CSc2sc3c(O)cc(=O)[nH]c3c2C#N)c1`, the EC50 was > 100 µM (inactive). In the case of `O=C(CCN1C(=O)/C(=C/c2ccco2)SC1=S)Nc1ccc(C(=O)O)c(O)c1`, the EC50 is reported as > 100 µM (inactive). An EC50 of 19.1 µM was found for `COc1cc(C(=O)NNC(=S)NC(=O)c2ccc(Cl)cc2)cc(OC)c1OC` in this work. With `COc1cc([N+](=O)[O-])ccc1NC(=S)NCCC(c1ccccc1)c1ccccc1` the EC50 was > 100 µM (inactive). For `N#Cc1c(SCC(=O)Nc2cccc(F)c2)sc2c(O)cc(=O)[nH]c12`, the EC50 was > 100 µM (inactive). `COc1ccc(CNC(=O)CSc2sc3c(O)cc(=O)[nH]c3c2C#N)cc1` was tested, and the EC50 was > 100 µM (inactive). With `O=C(O)CC(C(=O)O)N1C(=O)/C(=C/c2ccc(-c3nc4ccccc4s3)o2)SC1=S` (configuration not stated) the EC50 was > 100 µM (inactive). In the case of `N#Cc1c(SCC(=O)Nc2ccc(Cl)cc2Cl)sc2c(O)cc(=O)[nH]c12`, the EC50 is reported as > 100 µM (inactive). An EC50 of 30.6 µM was found for `O=C(CN1C(=O)/C(=C/c2ccco2)SC1=S)NC1CCS(=O)(=O)C1` (configuration not stated) in this work. `O=C(CCCN1C(=O)/C(=C/c2ccco2)SC1=S)Nc1ccccc1` was tested, and the EC50 was > 100 µM (inactive). `CCc1ccc(NC(=O)CN(C)S(=O)(=O)c2ccc3[nH]c(=O)oc3c2)cc1` was tested, and the EC50 was > 100 µM (inactive). For `N#Cc1c(SCC(=O)Nc2nc3ccccc3s2)sc2c(O)cc(=O)[nH]c12`, the EC50 was > 100 µM (inactive). `O=C(CCCN1C(=O)/C(=C\c2ccco2)SC1=S)Nc1ccc(O)cc1C(=O)O` was tested, and the EC50 was > 100 µM (inactive). For `COc1cccc(/C=N/NC(=O)c2cc(O)c(O)c(O)c2)c1`, the EC50 was > 100 µM (inactive). For `O=C(c1ccco1)N1CCN(S(=O)(=O)c2ccc3[nH]c(=O)oc3c2)CC1`, the EC50 was > 100 µM (inactive). With `Cc1ccc(NC(=O)CCNS(=O)(=O)c2ccc3[nH]c(=O)oc3c2)cc1F` the EC50 was > 100 µM (inactive). `CCN(CC)C(=O)CSc1sc2c(O)cc(=O)[nH]c2c1C#N` was tested, and the EC50 was > 100 µM (inactive). With `CCOC(=O)N1CCN(S(=O)(=O)c2ccc3[nH]c(=O)oc3c2)CC1` the EC50 was > 100 µM (inactive). `Cc1ccc(NC(=O)CCNS(=O)(=O)c2ccc3[nH]c(=O)oc3c2)cc1` was tested, and the EC50 was > 100 µM (inactive). For `Cc1cc(=O)oc2cc(NC(=S)NCCC(c3ccccc3)c3ccccc3)ccc12`, the EC50 was > 100 µM (inactive). For `CCOc1ccccc1NC(=O)CCNS(=O)(=O)c1ccc2[nH]c(=O)oc2c1`, the EC50 was > 100 µM (inactive). `Cc1ccc(/C=N/NC(=O)c2cc(O)c(O)c(O)c2)cc1` was tested, and the EC50 was > 100 µM (inactive). For `O=C(CCNS(=O)(=O)c1ccc2[nH]c(=O)oc2c1)Nc1ccccc1`, the EC50 was > 100 µM (inactive). `CSc1cccc(NC(=O)CCNS(=O)(=O)c2ccc3[nH]c(=O)oc3c2)c1` was tested, and the EC50 was > 100 µM (inactive). With `CC(C)c1ccc(NC(=O)CCNS(=O)(=O)c2ccc3[nH]c(=O)oc3c2)cc1` the EC50 was > 100 µM (inactive). In the case of `CC(C(=O)Nc1ccc(C(=O)O)cc1)N1C(=O)/C(=C\c2ccco2)SC1=S` (configuration not stated), the EC50 is reported as > 100 µM (inactive). With `CC(C(=O)NCCc1ccc(O)c(O)c1)N1C(=O)/C(=C\c2ccco2)SC1=S` (configuration not stated) the EC50 was > 100 µM (inactive). For `COc1cccc(NC(=O)CN(C)S(=O)(=O)c2ccc3[nH]c(=O)oc3c2)c1`, the EC50 was > 100 µM (inactive). In the case of `N#Cc1cccc(NC(=O)CCNS(=O)(=O)c2ccc3[nH]c(=O)oc3c2)c1`, the EC50 is reported as > 100 µM (inactive). `COc1cccc(CNC(=O)CCNS(=O)(=O)c2ccc3[nH]c(=O)oc3c2)c1` was tested, and the EC50 was > 100 µM (inactive). For `O=C(NCCc1ccc(Cl)cc1)C1CCCN(S(=O)(=O)c2ccc3[nH]c(=O)oc3c2)C1` (configuration not stated), the EC50 was > 100 µM (inactive). An EC50 of 30.8 µM was found for `COc1cc(C(=O)NN=Cc2ccccn2)cc(OC)c1OC` in this work. An EC50 of 52.6 µM was found for `O=C(CN1C(=O)/C(=C/c2ccco2)SC1=S)NC1C=CS(=O)(=O)C1` (configuration not stated) in this work. In the case of `O=C(CN1C(=O)/C(=C/c2ccco2)SC1=S)N[C@@H]1CSC[C@@H]1O`, the EC50 is reported as > 100 µM (inactive). For `CC(C(=O)NCCc1ccc(O)cc1)N1C(=O)/C(=C/c2ccco2)SC1=S` (configuration not stated), the EC50 was > 100 µM (inactive). `CC(C)NC(=O)CSc1sc2c(O)cc(=O)[nH]c2c1C#N` was tested, and the EC50 was > 100 µM (inactive). `Cc1ccc(NC(=O)CSc2sc3c(O)cc(=O)[nH]c3c2C#N)c(F)c1` was tested, and the EC50 was > 100 µM (inactive). With `O=C(CCN1C(=O)/C(=C/c2ccco2)SC1=S)Nc1ccc(O)cc1C(=O)O` the EC50 was > 100 µM (inactive). `O=C(NN=Cc1cccnc1)c1cc(O)c(O)c(O)c1` was tested, and the EC50 was > 100 µM (inactive). In the case of `CC(C(=O)Nc1ccccc1C(=O)O)N1C(=O)/C(=C\c2ccco2)SC1=S` (configuration not stated), the EC50 is reported as > 100 µM (inactive). For `COc1ccccc1NC(=O)CCNS(=O)(=O)c1ccc2[nH]c(=O)oc2c1`, the EC50 was > 100 µM (inactive). `COc1ccc(NC(=O)CCNS(=O)(=O)c2ccc3[nH]c(=O)oc3c2)cc1Cl` was tested, and the EC50 was > 100 µM (inactive). In the case of `Cc1csc(NC(=O)CSc2sc3c(O)cc(=O)[nH]c3c2C#N)n1`, the EC50 is reported as > 100 µM (inactive). With `O=C(CCN1C(=O)/C(=C\c2ccco2)SC1=S)Nc1ccc(C(=O)O)c(O)c1` the EC50 was > 100 µM (inactive). `O=C(N/N=C/c1ccc(F)cc1)c1cc(O)c(O)c(O)c1` was tested, and the EC50 was > 100 µM (inactive). In the case of `O=C(CN1C(=O)/C(=C/c2ccco2)SC1=S)Nc1ccc(C(=O)O)c(O)c1`, the EC50 is reported as > 100 µM (inactive). For `COc1ccccc1CNC(=O)CCNS(=O)(=O)c1ccc2[nH]c(=O)oc2c1`, the EC50 was > 100 µM (inactive). With `N#Cc1cccc(NC(=O)CSc2sc3c(O)cc(=O)[nH]c3c2C#N)c1` the EC50 was > 100 µM (inactive). With `COc1ccc(CNC(=O)CSc2sc3c(O)cc(=O)[nH]c3c2C#N)cc1OC` the EC50 was > 100 µM (inactive). `N#Cc1c(SCC(=O)Nc2ccccc2C(F)(F)F)sc2c(O)cc(=O)[nH]c12` was tested, and the EC50 was > 100 µM (inactive). With `CC(C(=O)Nc1cccc(C(=O)O)c1)N1C(=O)/C(=C\c2ccco2)SC1=S` (configuration not stated) the EC50 was > 100 µM (inactive). For `CCc1nnc(NC(=O)CSc2sc3c(O)cc(=O)[nH]c3c2C#N)s1`, the EC50 was > 100 µM (inactive). For `O=C(CN1C(=O)/C(=C\c2ccco2)SC1=S)Nc1ccc(C(=O)O)cc1`, the EC50 was > 100 µM (inactive). `N#Cc1c(SCC(=O)Nc2nncs2)sc2c(O)cc(=O)[nH]c12` was tested, and the EC50 was > 100 µM (inactive). With `CCSc1nnc(NC(=O)CSc2sc3c(O)cc(=O)[nH]c3c2C#N)s1` the EC50 was > 100 µM (inactive). In the case of `CCOc1ccccc1CNC(=O)CCNS(=O)(=O)c1ccc2[nH]c(=O)oc2c1`, the EC50 is reported as > 100 µM (inactive). `CCOc1ccc2nc(NC(=O)CN(C)S(=O)(=O)c3ccc4[nH]c(=O)oc4c3)sc2c1` was tested, and the EC50 was > 100 µM (inactive). In the case of `Cc1ccc(NC(=O)CCNS(=O)(=O)c2ccc3[nH]c(=O)oc3c2)c(C)c1`, the EC50 is reported as > 100 µM (inactive). For `O=C(CN1C(=O)/C(=C/c2ccco2)SC1=S)Nc1ccc(C(=O)O)cc1`, the EC50 was > 100 µM (inactive). For `O=C(CN1C(=O)/C(=C\c2ccco2)SC1=S)Nc1ccccc1C(=O)O`, the EC50 was > 100 µM (inactive). `O=C(N/N=C/C1CC=CCC1)c1cc(O)c(O)c(O)c1` (configuration not stated) was tested, and the EC50 was > 100 µM (inactive). `CC(C(=O)N(C)C1CCS(=O)(=O)C1)N1C(=O)/C(=C/c2ccco2)SC1=S` (configuration not stated) was tested, and the EC50 was > 100 µM (inactive). For `O=S(=O)(Nc1ncccn1)c1ccc(NC(=S)NCCC(c2ccccc2)c2ccccc2)cc1`, the EC50 was > 100 µM (inactive). `C/C(=N\NC(=O)c1cc(O)c(O)c(O)c1)c1ccncc1` was tested, and the EC50 was > 100 µM (inactive). In the case of `CN(C(=O)CN1C(=O)/C(=C\c2ccco2)SC1=S)C1CCS(=O)(=O)C1` (configuration not stated), the EC50 is reported as > 100 µM (inactive). In the case of `N#Cc1c(SCC(=O)Nc2nccs2)sc2c(O)cc(=O)[nH]c12`, the EC50 is reported as > 100 µM (inactive). In the case of `O=[N+]([O-])c1ccc(NC(=S)NCCC(c2ccccc2)c2ccccc2)cc1`, the EC50 is reported as > 100 µM (inactive). In the case of `O=C(N/N=C/c1ccccc1F)c1cc(O)c(O)c(O)c1`, the EC50 is reported as > 100 µM (inactive). In the case of `O=C(CN1C(=O)/C(=C\c2ccco2)SC1=S)Nc1ccc(O)cc1C(=O)O`, the EC50 is reported as > 100 µM (inactive). In the case of `O=C(NNC(=O)c1cc(O)c(O)c(O)c1)NC1CCCCC1`, the EC50 is reported as > 100 µM (inactive). `CN1CCC(=NNC(=O)c2cc(O)c(O)c(O)c2)CC1` was tested, and the EC50 was > 100 µM (inactive) and 64 µM. In the case of `O=C(CN1C(=O)/C(=C/c2ccco2)SC1=S)NCCc1ccc(O)cc1`, the EC50 is reported as > 100 µM (inactive). With `O=C(C1CCN(S(=O)(=O)c2ccc3[nH]c(=O)oc3c2)CC1)N1CC=C(c2ccccc2)CC1` the EC50 was > 100 µM (inactive). With `CCOC(=O)N1CCC(NC(=O)CSc2sc3c(O)cc(=O)[nH]c3c2C#N)CC1` the EC50 was > 100 µM (inactive). `O=C(CN1C(=O)/C(=C/c2ccco2)SC1=S)Nc1cccc(C(=O)O)c1` was tested, and the EC50 was > 100 µM (inactive). An EC50 of 21.4 µM was found for `COc1cc(C(=O)NNC(=S)NC(=O)c2ccccc2C)cc(OC)c1OC` in this work. With `Cc1ccc(/C=C2\SC(=S)N(C3CCS(=O)(=O)C3)C2=O)o1` (configuration not stated) the EC50 was > 100 µM (inactive). With `N#Cc1c(SCC(=O)Nc2nc3ccc(Br)cc3s2)sc2c(O)cc(=O)[nH]c12` the EC50 was > 100 µM (inactive). For `CCOC(=O)NC(=O)CSc1sc2c(O)cc(=O)[nH]c2c1C#N`, the EC50 was > 100 µM (inactive). For `COc1ccc(NC(=O)CSc2sc3c(O)cc(=O)[nH]c3c2C#N)c(OC)c1`, the EC50 was > 100 µM (inactive). An EC50 of 42.6 µM was found for `CCN(C(=O)CN1C(=O)/C(=C\c2ccco2)SC1=S)C1CCS(=O)(=O)C1` (configuration not stated) in this work. With `O=C(CN1C(=O)/C(=C/c2ccco2)SC1=S)Nc1ccc(O)c(C(=O)O)c1` the EC50 was > 100 µM (inactive). In the case of `NS(=O)(=O)c1ccc(-c2ccc(/C=C3\SC(=S)N(C4CCS(=O)(=O)C4)C3=O)o2)cc1` (configuration not stated), the EC50 is reported as > 100 µM (inactive). An EC50 of 13.5 µM was found for `COc1cc(C(=O)NNc2nc3cc4c(cc3s2)OCO4)cc(OC)c1OC` in this work.
